Results from PMC11062894, “Protein-based bandpass filters for controlling cellular signaling with chemical inputs” (Nature Chemical Biology, 2023).
Values joined by “and” are separate entries in the source; they are usually repeats but may differ in a detail not shown here. Equal values may be shown once.

Test system: GEMS receptors with CBPA11 (BclXL–LD3 and BclXLhigh variants), STAT3-driven SEAP in HEK293T cells
Test: GEMS SEAP reporter assay, CBPA11 (BclXLhigh, LD3-v and BclXL-v variants) with A-1155463
Assay type: cell-based
Set-up: key to Raw data (SEAP) / SEAP, replicate values / Raw data of Figure 5b / Raw data Figure 5e / Raw data of Independent repeat of CBPA11-v1 vs CBPA11-v1-LD3v3 / Raw data of Independent repeat of CBPA11-v3 vs CBPA11-v3-LD3v3 / Raw data of Figure 5b, CBPA11-v1-LD3v3 (SEAP reporter raw value, single replicate) / Raw data of Figure 5b, CBPA11-v1 (SEAP reporter raw value, single replicate): SEAP activity in U/L in culture supernatant
Conditions: for SEAP (U/L): Figure 4d, representative data and independent repeats 1, 2 (triplicates); for Normalized data (SEAP) / Raw data (SEAP): SuppFigure 9a
Source text: To rationally design a CBP responding to a chemical input, we used BclXL as the druglow receptor, LD3 as the designed binder and a designed BclXL variant as the drughigh receptor (referred to as BclXLhigh) to construct a CBP responsive to BclXL inhibitors (Fig. 4a). To design BclXLhigh, we used a multistate design computational protocol described elsewhere[26] […] Thus, BclXLhigh-v(1–3) were chosen as the functional drughigh receptors, resulting in three A-1155463-controlled CBPs (referred to as CBPA11-v(1–3)) (Fig. 4c–e).
HEK293T cells were seeded in a 96-well plate 24 h before transfection. The transfection mix in each well consisted of 3 ng of constitutive human CMV promoter driven mammalian STAT3 expression vector (PhCMV-STAT3-pA), 30 ng of STAT3-induced reporter expression (OStat3-PhCMVmin-SEAP-pA) and 50 ng of expression vectors for each GEMS receptor chain (PSV40-IgK-(drughigh receptor)-EpoRm-IL-6RBm-pA and PSV40-IgK-(druglow receptor-GGGGSX3-LD3)-EpoRm-IL-6RBm-pA). For the specific drughigh receptor and druglow receptor used in the different cellular assays, they are indicated as wild type or with mutations. Then, plasmid DNA was mixed with 50 μl opti-MEM (Thermo Fisher) and 600 ng of polyethyleneimine (Polysciences, catalog no. 24765-1). For drug treatment experiments, drugs were added 12 h post-transfection and incubated with cells for 24 h before the SEAP reporter detection assay.
SEAP activity (U l^−1) in cell culture supernatants was quantified by kinetic measurements at 405 nm (1 minute per measurement for 30 cycles) of absorbance increase due to phosphatase-mediated hydrolysis of para-nitrophenyl phosphate (pNPP).
Binding affinities of SPR drug competition assays were calculated using three-parameter nonlinear regression in GraphPad Prism (v.8.3.0). Representative data of cell assays are presented as individual values and mean values (bars). n = 3 refers to biological replicates. All IC50 or EC50 values of cell assays reported were calculated using four-parameter nonlinear regression ± s.d. Bandpass features of cutoff concentrations and Bandwidth90% were estimated based on the curve fitted using bell-shaped curve nonlinear regression in GraphPad Prism (v.8.3.0). […]
Supplementary Figure 4: Design, screening and validation of BclXLhigh variants. a) Screening of BclXLhigh variants in the GEMS platform. […]
Dissociation constant measurement of BclXLhigh-v(1-3) and LD3. Equilibrium curves are fitted using […]
BclXLhigh-v1 (purple), BclXLhigh-v2 (blue), […]
a) Bcl2high-based bandpass filter designs were developed and to respond to different concentrations of […]
corresponding inhibitor. c) Screening of Bcl2high-based bandpass filter variants in the GEMS platform.
The designed binder LD3 was fused to the druglow-receptor (PSV40-IgK-Bcl2-LD3-EpoRm-IL-6RBm-pA) in one EpoR chain and Bcl2high variants with the insensitive Bcl2 (iBcl2) as control in the other EpoR chain (PSV40-IgK-Bcl2high-EpoRm-IL-6RBm-pA). HEK293T cells were transfected with indicated […]
the mean of six biological replicates ± s.d., overlaid with a scatter dot plot of the original data points.
(1 picture or pasted object on this page, not shown here)
Supplementary Figure 6: Binding affinities and drug resistances of Bcl2high-v(2,4,5) assessed by […]
a) Measurement of dissociation constants for Bcl2high-v(2,4,5) and LD3 interactions. Equilibrium curves […]
Bcl2high-v(2,4,5) measured by SPR. 5 μM of Bcl2 or indicated variants were mixed with 10 μM of […]
Bcl2high-v2 (red), Bcl2high-v4
Supplementary Figure 7: Screening of LD3 variants in CBPA11-v(1-3) and raw data of CBPA11-v(1,3) with LD3-v3 variant. a-c) Screening of LD3 and LD3-v(1-3) variants in complex with BclXL for more sensitive CBPA11-v1 (a), CBPA11-v2 (b), CBPA11-v3 (c) in the GEMS platform. The LD3 variants replaced the role of LD3 (PSV40-IgK-BclXL-LD3-v(1-3)-EpoRm-IL-6RBm-pA) in one EpoR chain and BclXLhigh-v(1-3) in the other EpoR chain (PSV40-IgK-BclXLhigh-V(1-3)-EpoRm-IL-6RBm-pA). HEK293T cells were transfected with […]

[1] = CBPA11-v3-LD3v3, A-1155463 10000 nM

## CN(C)CC#Cc1ccc(OCCCc2sc(N3CCc4cccc(C(=O)Nc5nc6ccccc6s5)c4C3)nc2C(=O)O)c(F)c1 [A-1155463]
[1]
  Normalized data of Figure 5b: 13.381 and 8.285 and 13.0686
  Raw data of Figure 5b: 11.3652 and 7.762 and 13.9821
A-1155463 1 nM
  SEAP (U/L): 8.303 U/L and 10.1289 U/L and 7.12 U/L and 9.7586 U/L and 8.864 U/L and 9.857 U/L
A-1155463 3.16 nM
  SEAP (U/L): 6.744 U/L and 8.922 U/L and 8.703 U/L and 12.2331 U/L and 8.658 U/L and 8.903 U/L
BclXL-v1, A-1155463 1 nM
  Normalized data (SEAP): 9.876
  Raw data (SEAP): 9.508
BclXL-v1, A-1155463 3.16 nM
  Normalized data (SEAP): 8.253
  Raw data (SEAP): 7.946
BclXL-v1, A-1155463 100 nM
  Normalized data (SEAP): 78.5603
  Raw data (SEAP): 75.6338
BclXL-v1, A-1155463 316 nM
  Normalized data (SEAP): 100
  Raw data (SEAP): 96.2749
BclXL-v1, A-1155463 1000 nM
  Normalized data (SEAP): 71.1878
  Raw data (SEAP): 68.536
BclXL-v1, A-1155463 3160 nM
  Normalized data (SEAP): 30.3077
  Raw data (SEAP): 29.1787
BclXL-v1, A-1155463 10000 nM
  Normalized data (SEAP): 12.5367
  Raw data (SEAP): 12.0697
BclXL-v2, A-1155463 1 nM
  Normalized data (SEAP): 3.201
  Raw data (SEAP): 9.801
BclXL-v2, A-1155463 3.16 nM
  Normalized data (SEAP): 2.258
  Raw data (SEAP): 6.914
BclXL-v2, A-1155463 100 nM
  Normalized data (SEAP): 100
  Raw data (SEAP): 306.188
BclXL-v2, A-1155463 316 nM
  Normalized data (SEAP): 84.9937
  Raw data (SEAP): 260.24
BclXL-v2, A-1155463 1000 nM
  Normalized data (SEAP): 53.3071
  Raw data (SEAP): 163.22
BclXL-v2, A-1155463 3160 nM
  Normalized data (SEAP): 38.1484
  Raw data (SEAP): 116.806
BclXL-v2, A-1155463 10000 nM
  Normalized data (SEAP): 23.1544
  Raw data (SEAP): 70.8961
BclXL-v3, A-1155463 1 nM
  Normalized data (SEAP): 38.0177
  Raw data (SEAP): 3.662
BclXL-v3, A-1155463 3.16 nM
  Normalized data (SEAP): 36.4228
  Raw data (SEAP): 3.509
BclXL-v3, A-1155463 100 nM
  Normalized data (SEAP): 68.011
  Raw data (SEAP): 6.552
BclXL-v3, A-1155463 316 nM
  Normalized data (SEAP): 43.5621
  Raw data (SEAP): 4.196
BclXL-v3, A-1155463 1000 nM
  Normalized data (SEAP): 47.9459
  Raw data (SEAP): 4.619
BclXL-v3, A-1155463 3160 nM
  Normalized data (SEAP): 98.7391
  Raw data (SEAP): 9.512
BclXL-v3, A-1155463 10000 nM
  Normalized data (SEAP): 92.8941
  Raw data (SEAP): 8.949
BclXL, A-1155463 1 nM
  Normalized data (SEAP): 5.357
  Raw data (SEAP): 23.0325
